Experimental data from publication PMC9847078, “On the plasticity of amyloid formation: The impact of destabilizing small to large substitutions on islet amyloid polypeptide amyloid formation” (Protein Science : A Publication of the Protein Society, 2023).

Assay: Peptide solubility measurement (micro‐BCA after centrifugation)
Type: physicochemical
Conditions: 200 μM peptide in 10 mM PBS (140 mM KCl), centrifuged 18,000 g 30 min, supernatant by micro‐BCA
Method: Dry peptides were dissolved in HFIP to prepare the stock solutions. The concentrations of the stock solutions were measured by using freeze dried aliquots of the stock solutions with the micro‐BCA assay. Based on the stock solution concentrations, aliquots were prepared and lyophilized. The dry peptides were reconstructed in 10 mM phosphate buffer saline (140 mM KCl), pH 7.4 at a final peptide concentration of 200 μM. Immediately after reconstitution 10 μl of the sample was removed and the soluble peptide concentration was measured using the micro‐BCA assay. […] After 5 days, a 450 μl portion from each sample were removed and centrifuged at 18,000 g for 30 min (25°C). A 100 μl portion of the centrifuged supernatant was subjected to the micro‐BCA assay to calculate the amount of soluble peptide left after 5 days.

| Apparent solubility compared to wild type hIAPP (pH 7.4, 25°C, 5 days, differences not significant (p > 0.05)) | Apparent solubility: amount of peptide remaining in the solution (pH 7.4, stood 7 days at room temperature) | Structure (SMILES) |
| --- | --- | --- |
| Slightly higher concentrations |  | CC[C@H](C)[C@H](NC(=O)[C@H](C)NC(=O)[C@H](CC(C)C)NC(=O)[C@H](Cc1ccccc1)NC(=O)[C@H](CC(N)=O)NC(=O)[C@H](CC(N)=O)NC(=O)[C@H](CO)NC(=O)[C@H](CO)NC(=O)[C@H](Cc1c[nH]cn1)NC(=O)[C@@H](NC(=O)[C@H](CC(C)C)NC(=O)[C@H](Cc1ccccc1)NC(=O)[C@H](CC(N)=O)NC(=O)[C@H](C)NC(=O)[C@H](CC(C)C)NC(=O)[C@H](CCCNC(=N)N)NC(=O)[C@H](CCC(N)=O)NC(=O)[C@@H](NC(=O)[C@H](C)NC(=O)[C@@H]1CSSC[C@H](NC(=O)[C@@H](N)CCCCN)C(=O)N[C@@H](CC(N)=O)C(=O)N[C@@H]([C@@H](C)O)C(=O)N[C@@H](C)C(=O)N[C@@H]([C@@H](C)O)C(=O)N1)[C@@H](C)O)C(C)C)C(=O)N[C@@H](CC(C)C)C(=O)N[C@@H](CO)C(=O)N[C@@H](CO)C(=O)N[C@H](C(=O)N[C@@H](CC(N)=O)C(=O)N[C@H](C(=O)NCC(=O)N[C@@H](CO)C(=O)N[C@@H](CC(N)=O)C(=O)N[C@H](C(=O)N[C@@H](Cc1ccc(O)cc1)C(N)=O)[C@@H](C)O)C(C)C)[C@@H](C)O [G24L‐hIAPP] |
|  | greater than 50 μM | CC[C@H](C)[C@H](NC(=O)[C@H](C)NC(=O)[C@@H]1CCCN1C(=O)[C@H](Cc1ccccc1)NC(=O)[C@H](CC(N)=O)NC(=O)[C@H](CC(N)=O)NC(=O)[C@H](CO)NC(=O)[C@H](CO)NC(=O)[C@H](Cc1c[nH]cn1)NC(=O)[C@@H](NC(=O)[C@H](CC(C)C)NC(=O)[C@H](Cc1ccccc1)NC(=O)[C@H](CC(N)=O)NC(=O)[C@H](C)NC(=O)[C@H](CC(C)C)NC(=O)[C@H](CCCNC(=N)N)NC(=O)[C@H](CCC(N)=O)NC(=O)[C@@H](NC(=O)[C@H](C)NC(=O)[C@@H]1CSSC[C@H](NC(=O)[C@@H](N)CCCCN)C(=O)N[C@@H](CC(N)=O)C(=O)N[C@@H]([C@@H](C)O)C(=O)N[C@@H](C)C(=O)N[C@@H]([C@@H](C)O)C(=O)N1)[C@@H](C)O)C(C)C)C(=O)N[C@@H](CC(C)C)C(=O)N[C@@H](CO)C(=O)N[C@@H](CO)C(=O)N[C@H](C(=O)N[C@@H](CC(N)=O)C(=O)N[C@H](C(=O)NCC(=O)N[C@@H](CO)C(=O)N[C@@H](CC(N)=O)C(=O)N[C@H](C(=O)N[C@@H](Cc1ccc(O)cc1)C(N)=O)[C@@H](C)O)C(C)C)[C@@H](C)O [G24P‐hIAPP] |
